# Read-outs that look alike come from different tables or passages of the source.
# Tested on: Propionibacterium acnes ATCC 6919
# Experimental: The sample is then recovered onto agar and incubated 5-7 days until clear colonies are visible. […] The anti-P. acnes activity of various test treatments were compared. Anti-P. acnes activity was measured using the in vitro method described above. The test treatments comprised either 0.1 or 0.25 weight percent of succinic acid in reinforced clostridial media with and without the administration of 440 nm blue light. […] Non-control test samples were adjusted to a pH of 4.5.
smiles,measurement,setting,value
"O=C(O)CCC(=O)O [Succinic Acid, Succinic acid (butanedioic acid)]",antimicrobial activity of the combination relative to the expected additive reduction,0.1% succinic acid + light: 6.7 log reduction vs additive 2.6 log reduction,"about 12,000 times"
same,reduction of P. acnes bacterial count,0.1% succinic acid combined with light,6.7 logs
same,Log 10 reduction vs Control Solution,"0.1% succinic acid in reinforced clostridial media, pH 4.5, no light",2.0 Log 10
same,reduction of P. acnes bacterial count,"0.1% succinic acid, no light, compared to untreated control solution",2 logs
same,Log 10 reduction vs Control Solution,"0.1% succinic acid, pH 4.5, + 440 nm blue light",>6.7 Log 10
same,antimicrobial activity of the combination relative to the expected additive reduction,0.25% succinic acid + light: 6.7 log reduction vs additive 6.2 log reduction,about 3 times
same,reduction of P. acnes bacterial count,0.25% succinic acid combined with light,6.7 logs
same,Log 10 reduction vs Control Solution,"0.25% succinic acid in reinforced clostridial media, pH 4.5, no light",5.6 Log 10
same,reduction of P. acnes bacterial count,"0.25% succinic acid, no light, compared to untreated control solution",5.6 logs
same,Log 10 reduction vs Control Solution,"0.25% succinic acid, pH 4.5, + 440 nm blue light",>6.7 Log 10
